Columns and labels:
Assay in all cases: cells
[1] = tested on: ALL-PO; format: functional, cell-based; details: Homo sapiens;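 also: growth inhibition of ALL-PO cells, read out by a cell viability assay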
Description: SANGER: Inhibition of human ALL-PO cell growth in a cell viability assay.

[2] = tested on: COLO-800; format: functional, cell-based, Homo sapiens; details: Homo sapiens, COLO-800;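 also: growth inhibition of COLO-800 cells, read out with a cell viability assay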
Description: SANGER: Inhibition of human COLO-800 cell growth in a cell viability assay.

[3] = tested on: MN-60; format: functional, cell-based; details: Homo sapiens;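 also: growth inhibition of the MN-60 cell line, determined with a cell viability assay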
Description: SANGER: Inhibition of human MN-60 cell growth in a cell viability assay.

[4] = tested on: U-266; format: functional, cell-based; details: Homo sapiens
Description: SANGER: Inhibition of human U-266 cell growth in a cell viability assay.

[5] = tested on: GOTO; format: functional, cell-based, Homo sapiens; details: Homo sapiens, GOTO;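 also: growth inhibition of GOTO cells, read out by a cell viability assay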
Description: SANGER: Inhibition of human GOTO cell growth in a cell viability assay.

[6] = tested on: SK-NEP-1; format: functional, cell-based; details: Homo sapiens;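 also: growth inhibition of human SK-NEP-1 cells, read out by a cell viability assay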
Description: SANGER: Inhibition of human SK-NEP-1 cell growth in a cell viability assay.

[7] = tested on: IST-SL1; format: functional, cell-based, Homo sapiens; details: Homo sapiens, IST-SL1;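 also: growth inhibition of human IST-SL1 cells, read out with a cell viability assay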
Description: SANGER: Inhibition of human IST-SL1 cell growth in a cell viability assay.

[8] = tested on: NTERA-2-cl-D1; format: functional, cell-based, Homo sapiens; details: Homo sapiens, NTERA-2-cl-D1;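 also: inhibition of cell growth, measured with a cell viability assay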
Description: SANGER: Inhibition of human NTERA-S-cl-D1 cell growth in a cell viability assay.

[9] = tested on: SNB-75; format: functional, cell-based, Homo sapiens; details: Homo sapiens, SNB-75;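 also: cell viability assay measuring growth inhibition of human SNB-75 cells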
Description: SANGER: Inhibition of human SNB75 cell growth in a cell viability assay.

[10] = tested on: LOX IMVI; format: functional, cell-based; details: Homo sapiens
Description: SANGER: Inhibition of human LOXIMVI cell growth in a cell viability assay.

[11] = tested on: LB771-HNC; format: functional, cell-based, Homo sapiens; details: Homo sapiens, LB771-HNC;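 also: growth inhibition of LB771-HNC human cells, read out with a cell viability assay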
Description: SANGER: Inhibition of human LB771-HNC cell growth in a cell viability assay.

[12] = tested on: NCI-H1770; format: functional, cell-based; details: Homo sapiens;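 also: growth inhibition of NCI-H1770 cells determined with a viability readout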
Description: SANGER: Inhibition of human NCI-H1770 cell growth in a cell viability assay.

[13] = tested on: LU-134-A; format: functional, cell-based; details: Homo sapiens
Description: SANGER: Inhibition of human LU-134-A cell growth in a cell viability assay.

[14] = tested on: KARPAS-45; format: functional, cell-based; details: Homo sapiens;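 also: inhibition of cell line growth, read out through a viability assay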
Description: SANGER: Inhibition of human KARPAS-45 cell growth in a cell viability assay.

[15] = tested on: TK-10; format: functional, cell-based, Homo sapiens; details: Homo sapiens, TK-10;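 also: growth inhibition of TK-10 cells, read out in a cell viability assay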
Description: SANGER: Inhibition of human TK10 cell growth in a cell viability assay.

[16] = tested on: K562; format: functional, cell-based; details: Homo sapiens
Description: SANGER: Inhibition of human K-562 cell growth in a cell viability assay.

[17] = tested on: NCI-H1648; format: functional, cell-based, Homo sapiens; details: Homo sapiens, NCI-H1648;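 also: cell viability assay measuring inhibition of NCI-H1648 cell growth, from the Sanger screening data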
Description: SANGER: Inhibition of human NCI-H1648 cell growth in a cell viability assay.

[18] = tested on: RPMI-8866; format: functional, cell-based; details: Homo sapiens
Description: SANGER: Inhibition of human RPMI-8866 cell growth in a cell viability assay.

[19] = tested on: SNU-5; format: functional, cell-based; details: Homo sapiens;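 also: cell viability readout used to measure growth inhibition in human NCI-SNU-5 cells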
Description: SANGER: Inhibition of human NCI-SNU-5 cell growth in a cell viability assay.

[20] = tested on: MS-1; format: functional, cell-based; details: Homo sapiens;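 also: growth inhibition of MS-1 cells, read out by cell viability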
Description: SANGER: Inhibition of human MS-1 cell growth in a cell viability assay.

[21] = tested on: HAL-01; format: functional, cell-based; details: Homo sapiens;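 also: growth inhibition of human HAL-01 cells, read out with a cell viability assay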
Description: SANGER: Inhibition of human HAL-01 cell growth in a cell viability assay.

[22] = tested on: CAS-1; format: functional, cell-based, Homo sapiens; details: Homo sapiens, CAS-1;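 also: growth inhibition of CAS-1 cells, measured with a cell viability assay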
Description: SANGER: Inhibition of human CAS-1 cell growth in a cell viability assay.

[23] = tested on: MHH-PREB-1; format: functional, cell-based; details: Homo sapiens;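 also: cell viability assay measuring inhibition of proliferation of human MHH-PREB-1 cells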
Description: SANGER: Inhibition of human MHH-PREB-1 cell growth in a cell viability assay.

[24] = tested on: D-336MG; format: functional, cell-based, Homo sapiens; details: Homo sapiens, D-336MG
Description: SANGER: Inhibition of human D-336MG cell growth in a cell viability assay.

Structure (SMILES)	IC50 [1]	IC50 [2]	IC50 [3]	IC50 [4]	IC50 [5]	IC50 [6]	IC50 [7]	IC50 [8]	IC50 [9]	IC50 [10]	IC50 [11]	IC50 [12]	IC50 [13]	IC50 [14]	IC50 [15]	IC50 [16]	IC50 [17]	IC50 [18]	IC50 [19]	IC50 [20]	further results
C=C1C(=O)O[C@@H]2C3O[C@]3(C)CC/C=C(\C)CC[C@@H]12 (stereo partly specified)	> 5 µM	> 5 µM	> 5 µM	> 5 µM	> 5 µM	> 5000 nM	> 5 µM	> 5 µM	> 5 µM	> 5 µM	> 5 µM	> 5 µM	> 5 µM	> 5 µM	> 5 µM	> 5 µM	> 5 µM	> 5 µM	> 5 µM	> 5 µM	IC50 [21]: > 5 µM; IC50 [22]: > 5 µM; IC50 [23]: > 5 µM; IC50 [24]: > 5 µM
CC1=C2C[C@H]3[C@@H](CC=C4C[C@@H](O)CC[C@@]43C)[C@@H]2CC[C@]12O[C@@H]1C[C@H](C)CN[C@H]1[C@H]2C [CYCLOPAMINE]	11.8 µM	> 16 µM	> 16 µM	> 16 µM	> 16 µM	> 16000 nM	> 16 µM	> 16 µM	> 16 µM	> 16 µM	> 16 µM	> 16 µM	> 16 µM	> 16 µM	> 16 µM	> 16 µM	> 16 µM	> 16 µM	> 16 µM	> 16 µM	IC50 [21]: > 16 µM; IC50 [22]: > 16 µM; IC50 [23]: > 16 µM; IC50 [24]: > 16 µM
CS(=O)(=O)CCNCc1ccc(-c2ccc3ncnc(Nc4ccc(OCc5cccc(F)c5)c(Cl)c4)c3c2)o1 [LAPATINIB]	> 2 µM	> 2 µM	> 2 µM	> 2 µM	> 2 µM	> 2000 nM	> 2 µM	> 2 µM	> 2 µM	> 2 µM	> 2 µM	> 2 µM	> 2 µM	> 2 µM	> 2 µM	> 2 µM	0.0254 µM	> 2 µM	> 2 µM	> 2 µM	IC50 [21]: > 2 µM; IC50 [22]: > 2 µM; IC50 [23]: > 2 µM; IC50 [24]: > 2 µM
CCc1nc(N)nc(N)c1-c1ccc(Cl)cc1 [PYRIMETHAMINE]	1.19 µM	> 20 µM	> 20 µM	5.13 µM	> 20 µM	1240 nM	16.1 µM	> 20 µM	> 20 µM	13 µM	> 20 µM	> 20 µM	> 20 µM	> 20 µM	7.42 µM	> 20 µM	> 20 µM	9.7 µM	> 20 µM	> 20 µM	IC50 [21]: 4.74 µM; IC50 [22]: > 20 µM; IC50 [23]: > 20 µM; IC50 [24]: > 20 µM

— ChEMBL document CHEMBL1201861, “Genomics of Drug Sensitity in Cancer screening data, Wellcome Trust Sanger Institute”
